For 59 compounds, RP-LC retention time results are on record in the METLIN SMRT retention time set (Domingo-Almenara et al. 2019).

This data set in a line: gradient 5% acetonitrile 3 min, to 50% in 2 min, to 85% in 15 min, held 3 min, 100 µL/min. Conditions: column: Zorbax Extend-C18 2.1 x 50 mm; eluents: water / acetonitrile, 0.1% formic acid. In a few lines:
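The mobile phases were water and acetonitrile, each with 0.1% formic acid, pumped at 100 μL/min through a Zorbax Extend-C18 column (2.1 × 50 mm, 1.8 μm). Pure standards were injected as mixtures of ~100 molecules and detected by a quadrupole time-of-flight mass spectrometer in positive and negative ionization mode. Retention time came from computationally picked adduct peaks, each inspected by hand.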
Compound `Cc1ccc(CNC(=O)c2cc(C)no2)cc1` returned an RP-LC retention time of 793 s.

`O=C(O)CNC(=O)C1CCN(S(=O)(=O)c2ccc(F)cc2)CC1`: the RP-LC retention time worked out at 652 s. As to `Cc1nc(-c2cnccn2)n(CC(=O)Nc2ccccc2)c(=O)c1C`, the RP-LC retention time was 704 s.

`Cc1ccc(NC(=O)Cn2nc(N(C)C)c3ccccc3c2=O)cc1Cl` returned an RP-LC retention time of 958 s. With `O=C(c1ccc2c(=O)n3c(nc2c1)CCCC3)N1CCN(c2ccccn2)CC1`, the RP-LC retention time was determined as 564 s. The result for `CCc1cccc(NC(=O)CN2C(=O)CCCc3cc(S(=O)(=O)N4CCCC4)ccc32)c1` reads 916 s; that for `COc1ccc(NC(=O)N2c3ccccc3CC2c2nc(C(C)C)no2)c(C)c1` (centres undefined), 1220 s. `Cn1cc(-c2ccccc2)cc1C(=O)NCc1ccc(N2CCOCC2)cc1` showed an RP-LC retention time of 892 s.

`O=C(Cc1ccc(NC(=O)c2ccc(F)c(F)c2)cc1)NC1CC1` had an RP-LC retention time of 686 s. The result for `Cc1ccc(C(=O)Nc2cccc(OCc3nnc(-c4ccc(Cl)cc4)o3)c2)s1` reads 1100 s; that for `CCCCN1C(=O)C(NC(=O)c2ccccc2OC)(C(F)(F)F)C2=C1CC(C)(C)CC2=O` (centres undefined), 1080 s. The compound `O=C(Cc1nnc(-c2ccc3ncccc3c2)o1)NCc1ccc(F)cc1` displayed an RP-LC retention time of 677 s. The result for `O=C(Cc1c[nH]c2ncccc12)NCc1cccc(Br)c1` reads 647 s. As for `Nc1nc(N)nc(-c2cc(Cl)ccc2Cl)n1`, the RP-LC retention time was determined as 714 s. The result for `CCc1ccc(N2CCC(C(=O)NCCc3c[nH]c4ccc(C)cc34)C2=O)cc1` (centres undefined) reads 1010 s; that for `CCc1nnc2ccc(-c3noc(-c4ccccc4)n3)cn12`, 906 s; that for `COc1ccccc1CCC(=O)N1C[C@@H]2C[C@H](NS(C)(=O)=O)[C@H]1C2`, 678 s. As to `Cc1cc(C)cc(NS(=O)(=O)c2cc(-c3nc(C)cs3)cs2)c1`, the RP-LC retention time worked out at 1010 s. In turn, `CCOC(=O)C1=C(CN2CCC(c3ccccc3)C2)NC(=O)NC1c1ccc(F)cc1` (centres undefined) gave an RP-LC retention time of 687 s.

Turning to `CN1C(=O)C(c2c(-c3ccc(Br)cc3)[nH]c3[nH]c(=O)[nH]c(=O)c23)c2ccccc21` (centres undefined), the RP-LC retention time was found to be 721 s. As to `COC[C@@H]1CN(C(=O)c2cc(Cl)ccc2F)C[C@H]1C(N)=O`, the RP-LC retention time worked out at 611 s. On to `CCc1nc(-c2cc(S(=O)(=O)N3CCC(C(=O)N4CCCCCC4)CC3)c(C)s2)no1`, for which the RP-LC retention time turned out to be 1030 s. Take `Cc1cc(C)n(Cc2nc(-c3ccc(NC(=O)Cc4ccc(F)cc4)cc3)oc2C)n1`: the RP-LC retention time was 917 s. With `Cc1cc(NC(=O)C(=O)NCCCn2ccnc2)ccc1Br`, the RP-LC retention time came to 659 s.

In the case of `COC(=O)c1cnc2nc(C)ccc2c1NCc1ccc2c(c1)OCO2`, the RP-LC retention time is 659 s. The compound `CCn1ncn2cc(S(=O)(=O)Nc3ccc(F)cc3)cc2c1=O` returned an RP-LC retention time of 848 s. Take `Cc1cc(C(=O)N2CCC(c3cc(N)on3)CC2)no1`: the RP-LC retention time amounted to 625 s. Regarding `CCN(CC)C(=O)CS(=O)Cc1cnn(-c2ccccc2)c1-n1cccc1` (centres undefined), the RP-LC retention time was found to be 754 s. In turn, `O=C1CCCc2cc(S(=O)(=O)N3CCCC(C(=O)N4CCN(c5ccccc5)CC4)C3)ccc2N1` (centres undefined) yielded an RP-LC retention time of 788 s. With `COCCNS(=O)(=O)c1cc(-c2[nH]ncc2C(=O)N2CCCC2)oc1C` the figure was 591 s. `CCCCn1cc(S(=O)(=O)NCc2cccc(F)c2)c2cccnc21` had an RP-LC retention time of 964 s.

`Cc1ccc(C)c(NC(=O)C(=O)NCC(c2ccc3c(c2)CCCN3C)N2CCCC2)c1` (centres undefined) had an RP-LC retention time of 746 s. `CC(C(=O)NCCc1c[nH]c2ccc(Cl)cc12)C1CCN(S(=O)(=O)c2cccs2)CC1` (centres undefined): the RP-LC retention time turned out to be 921 s. In turn, `CCC(C)C(NC(=O)c1ccc2c(c1)OCO2)C(=O)Nc1nc2ccccc2[nH]1` (centres undefined) returned an RP-LC retention time of 718 s.

`COc1ccc(-c2ncc3c(=O)n(CC(=O)N4CCCC4)c(=O)n(C)c3n2)cc1` showed an RP-LC retention time of 815 s. As for `CCCn1cc(C(=O)NCC(=O)OCC)c(S(=O)(=O)N2CCN(c3cccc(Cl)c3)CC2)n1`, the RP-LC retention time amounted to 1060 s. Take `CN1CCc2c(c(CNC(=O)c3cc(CN4CCOCC4)on3)nn2C)C1`: the RP-LC retention time turned out to be 770 s. Take `COc1ccc(NC(=O)N2CCC3(C2)C(=O)Nc2ccc(OC)cc23)cc1` (centres undefined): the RP-LC retention time came out at 697 s. With `CCCN(C)C[C@@H]1CC(F)(F)CN1C1CCN(S(=O)(=O)c2ccc(C)cc2C)CC1` the figure was 788 s; with `Cc1nc(C)c(C(=O)N2CCC(c3noc(-c4ccccn4)n3)C2)s1` (centres undefined), 648 s; with `CCc1ccc(S(=O)(=O)Nc2cc(-c3cn4ccc(C)cc4n3)ccc2C)cc1`, 745 s. Take `Cc1ccc(-c2cc3c(=O)n(Cc4noc(CN5CCSCC5)n4)ccn3n2)c(C)c1`: the RP-LC retention time was found to be 962 s. Consider `O=C(NC1CC1)C1CCN(Cc2cc3ccccc3n2Cc2ccc(Cl)cc2)CC1`, for which the RP-LC retention time was 717 s.

`Cn1c(=O)n(C)c2cc(CNCCc3ccc(F)cc3)ccc21` yielded an RP-LC retention time of 609 s. `COc1ccc(-c2cc3nn(CC(=O)N4CCOCC4)c(=O)n3c(C)n2)cc1` registered an RP-LC retention time of 717 s. The result for `O=C(Cc1ccccc1Cl)Nc1nnc(-c2ccc(OC(F)(F)F)cc2)o1` reads 896 s; that for `O=C(NC1CCNCC1)c1[nH]ncc1NC(=O)c1c(Cl)cccc1Cl`, 639 s; that for `Cc1nnc(-c2nnc(NCC3CCCCC3)c3ccccc23)o1`, 772 s. `O=C(Cn1nc(Cc2ccncc2)c2ccccc2c1=O)NCCCN1CCc2ccccc2C1` returned an RP-LC retention time of 567 s. `CCOC(=O)Nc1csnn1` had an RP-LC retention time of 711 s.

In the case of `COc1ccc(N2CCN(C(=S)Nc3ccc4nc(N5CCN(C)CC5)cc(C)c4c3)CC2)cc1`, the RP-LC retention time came to 580 s. Turning to `NC(=O)CNC(=O)c1cc2c(s1)N(CC1CC1)CCCC2`, the RP-LC retention time was determined as 692 s. In the case of `COC[C@@H]1CN(S(=O)(=O)c2ccccc2)C[C@H]1c1nc(C)no1`, the RP-LC retention time is 803 s.

For the compound `Cc1ccc(NC(=O)CN2C(=O)CCS(=O)(=O)c3ccccc32)cc1`, the RP-LC retention time was 761 s. With `COCCN(CC(=O)N1CCc2sccc2C1COc1ccccc1OC)C(C)=O` (centres undefined), the RP-LC retention time was 757 s. For the compound `CCOC(=O)CC1(NC(=O)N2CCN(c3nc4ccccc4nc3C(F)(F)F)CC2)CCCCC1`, the RP-LC retention time was 1230 s.

Consider `Cc1oc2ccn(Cc3cccc(F)c3)c(=O)c2c1C(=O)NCc1cc(F)cc(F)c1`, for which the RP-LC retention time was 1130 s.

In the case of `COc1ccc(OC)c(C2CCN(C(=O)c3nc(-c4oc5c(C)cccc5c4C)no3)C2)c1` (centres undefined), the RP-LC retention time came out at 1310 s. For `Cc1cc(C)n(-c2ccnc(N3CCN(c4ccccc4F)CC3)n2)n1`, the RP-LC retention time stood at 1220 s.
